PMC12797170, “Potent Competitive Inhibitors of Ecto-5′-nucleotidase (CD73) based on 6‑(Het)aryl-7-deazapurine Ribonucleoside 5′‑O‑Bisphosphonates” (ACS Pharmacology & Translational Science, 2025)
Converted amounts (≈) assume the structure as drawn.

Tests used:
[1] = Kinetic solubility in PBS; format: physicochemical; details: phosphate-buffered saline, pH 7.4, aqueous buffer, kinetic from dmso stock
Method: Test compounds were prepared as 10 mM stock solutions in DMSO and diluted in phosphate-buffered saline (PBS, pH 7.4) to a 100 μM solution, which was then aliquoted in duplicate. The duplicate samples were incubated in Multiscreen PCF Filter Plates (Merck Millipore) with sealed bottom at room temperature on a shaker for 2 h to allow equilibration. Following incubation, the samples were centrifuged into nonsterile, flat-bottom 96-well plates at 2,200 RCF for 12 min. Supernatants were then diluted 1:99 in a solution of 50% acetonitrile containing 0.1% DMSO. The diluted samples were transferred to 384-well Echo plates, which contained prespotted calibration standards prepared by Echo transfer of 10 mM and 1 mM DMSO stock solutions, resulting in calibration points ranging from 0.05 to 4 μM. Samples and standards were subsequently analyzed by Echo-MS.

HepG2 = assay: In vitro cytotoxic activity; format: cell-based; details: Homo sapiens
Method: (§1) All the compounds were also tested for their in vitro cytotoxic activity on a small panel of four cancer cell lines (CCRF-CEM, HepG2, HeLa S3, HL-60) and nonmalignant human dermal fibroblasts (NHDF).

CCRF-CEM = assay: In vitro cytotoxic activity; format: cell-based; details: Homo sapiens
Method: as §1

[2] = system: nonmalignant human dermal fibroblasts (NHDF); assay: In vitro cytotoxic activity; format: cell-based
Method: as §1

HL-60 = assay: In vitro cytotoxic activity; format: cell-based; details: Homo sapiens
Method: as §1

HeLa S3 = assay: In vitro cytotoxic activity; format: cell-based; details: Homo sapiens
Method: as §1

[3] = Plasma protein binding, equilibrium dialysis, human plasma; format: in vitro ADME; details: undiluted plasma
Method: (§2) Plasma protein binding of the investigated compounds was determined using equilibrium dialysis in single-use Rapid Equilibrium Dialysis devices with an 8 kDa molecular weight cutoff (Thermo Fisher Scientific), following the manufacturer’s protocol. In brief, 50 μL of undiluted human plasma (Biowest), spiked with the test compound at a final concentration of 100 μM, was added to the sample chamber, while 300 μL of phosphate-buffered saline (PBS) was placed in the buffer chamber. Devices were incubated for 4 h at 37 °C with gentle shaking.
(§3) After dialysis, 7.5 μL aliquots from both the plasma and buffer chambers were transferred directly into wells of a 384-well plate. To equalize the matrices for downstream processing, 7.5 μL of PBS was added to each plasma aliquot, and 7.5 μL of plasma was added to each buffer aliquot. Proteins were precipitated by adding four volumes of ice-cold methanol to each well, followed by thorough mixing and incubation at – 20 °C for 30 min. Plates were then stored overnight at 8 °C. Prior to analysis, the plate was centrifuged at 2,000 × g for 20 min at 8 °C. […] The fraction of unbound compound was calculated using the following equations: %Free=c(bufferchamber)/c(plasmachamber)*100% %Bound=100%−%Free

[4] = Plasma protein binding, mouse plasma; format: in vitro ADME; details: mouse, plasma, mouse plasma protein binding; read-out: PPB (m) (converted)
Method: as §2, §3

in vitro [5] = details: human, plasma
in vitro [6] = details: mouse, plasma
[7] = Microsomal stability assay, mouse liver microsomes; format: in vitro ADME; details: for Mics (m) comp remaining 60 min: 10 μM; for microsomal CLint at 10 µM: pooled liver microsomes, pH 7.4, read-out: Mics (m) CLint
[8] = Microsomal stability assay, human liver microsomes; format: in vitro ADME; details: for Mics (hu) comp remaining 60 min: 10 μM; for microsomal CLint at 10 µM: pooled liver microsomes, pH 7.4, read-out: Mics (hu) CLint
[9] = target: T1, recombinant human CD73 (hCD73) (Homo sapiens, UniProt P21589); assay: CD73 activity assay on recombinant human CD73; format: biochemical; details: ΔGexp = RT ln Ki
T1 sequence (P21589 27-574): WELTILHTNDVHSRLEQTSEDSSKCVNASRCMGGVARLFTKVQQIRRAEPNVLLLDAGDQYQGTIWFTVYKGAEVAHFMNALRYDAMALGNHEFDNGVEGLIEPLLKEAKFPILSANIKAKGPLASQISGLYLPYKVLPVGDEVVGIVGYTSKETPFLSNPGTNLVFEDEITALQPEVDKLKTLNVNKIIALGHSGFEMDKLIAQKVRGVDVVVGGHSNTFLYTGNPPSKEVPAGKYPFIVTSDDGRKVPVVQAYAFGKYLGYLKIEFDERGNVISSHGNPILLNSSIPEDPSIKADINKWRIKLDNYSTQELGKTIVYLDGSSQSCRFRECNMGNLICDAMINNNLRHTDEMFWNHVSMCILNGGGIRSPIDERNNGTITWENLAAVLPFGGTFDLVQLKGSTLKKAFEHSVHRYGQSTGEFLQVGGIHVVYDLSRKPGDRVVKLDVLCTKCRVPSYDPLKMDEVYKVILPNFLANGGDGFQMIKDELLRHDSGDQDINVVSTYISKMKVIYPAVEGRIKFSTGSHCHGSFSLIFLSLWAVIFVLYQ

[10] = In vivo pharmacokinetic study, intravenous; design: species or system male CD-1 mice; details: plasma, 1 mg/kg, intravenous; for half-life: male, CD-1, mouse, iv, footnote: t1/2 stability in plasma, text: half-life in mouse PK; for clearance: mouse, male CD-1 mice, single dose, read-out: Cl (obs), observed clearance
Method: The pharmacokinetic study was performed by Bienta (Enamine Biology Services) using male CD-1 mice (3 animals, 9 weeks old, body weight ranging from 29.2 to 33.7 g) following intravenous administration. Levels of the test compound were determined by LC-MS/MS in blood plasma over time (seven sampling time points: 5, 15, 30, 60, 120, 240, and 480 min) after a single dose.
Animal treatment and samples preparation were conducted by the Animal Laboratory personnel at Enamine/Bienta.

[11] = human plasma protein binding, read-out: PPB (hu) (converted)
[12] = Table 6, human plasma, read-out: fup, fraction unbound in human plasma

SMILES	solubility at 2 h [1] [µM]	fraction unbound at 4 h, 100 µM [3, 11]	fraction unbound at 4 h, 100 µM [4]	half-life at 10 µM (in vitro [5]) [h]	half-life at 10 µM (in vitro [6]) [h]	Mics (m) comp remaining 60 min [7] [%]	microsomal CLint at 10 µM [7] [µL/min/mg]	Mics (hu) comp remaining 60 min [8] [%]	microsomal CLint at 10 µM [8] [µL/min/mg]	dG_exp, experimental binding free energy [9]	fraction unbound at 4 h, 100 µM [3, 12]	half-life [10] [h]	clearance [10] [mL/min/kg]	IC50 (HepG2) [µM]	IC50 (CCRF-CEM) [µM]	IC50 [2] [µM]	IC50 (HL-60) [µM]	IC50 (HeLa S3) [µM]
O=P(O)(O)CP(=O)(O)OC[C@H]1O[C@@H](n2ccc3c(-c4ccc(-c5ccccc5)cc4)ncnc32)[C@H](O)[C@@H]1O [4A.9]	64 (≈ 35.9 µg/mL)	0.011	0.144	> 2	> 2									> 10	> 10	> 10	> 10	> 10
O=P(O)(O)CP(=O)(O)OC[C@H]1O[C@@H](n2ccc3c(-c4ccncc4)ncnc32)[C@H](O)[C@@H]1O [4A.16]	79 (≈ 38.4 µg/mL)	0.304	0.833	> 2	> 2	80	9	94	3					> 10	> 10	> 10	> 10	> 10
N#Cc1ccc(-c2nc(Cl)nc3c2ccn3[C@@H]2O[C@H](COP(=O)(O)CP(=O)(O)O)[C@@H](O)[C@H]2O)c2ccccc12 [7B.34]	> 100	≤ 0.01	0.339	> 2	> 2		< 2	97	< 2					> 10	> 10	> 10	> 10	> 10
O=P(O)(O)CP(=O)(O)OC[C@H]1O[C@@H](n2cnc3c(-c4cccc5ccccc45)ncnc32)[C@H](O)[C@@H]1O [31A.6, [(5-{[6-(Naphth-1-yl)-9H-purin-9-yl]-β-D-ribofuranosyl}oxy)phosphonomethyl]phosphonic Acid]	87 (≈ 46.7 µg/mL)	0.093	0.628	> 2	> 2	108	< 1	121	< 1					> 10	> 10	> 10	> 10	> 10
O=P(O)(O)CP(=O)(O)OC[C@H]1O[C@@H](n2cnc3c(-c4ccc5ccccc5c4)ncnc32)[C@H](O)[C@@H]1O [31A.7]	86 (≈ 46.1 µg/mL)	≤ 0.01	0.224	> 2	> 2	87	6	106	< 1					4.8	> 10	3.7	7.6	> 10
O=P(O)(O)CP(=O)(O)OC[C@H]1O[C@@H](n2ccc3c(-c4ccccc4)ncnc32)[C@@H](F)[C@@H]1O [34A.5, [(5-{[4-Phenyl-7H-pyrrolo[2,3-d]pyrimidin-7-yl]-2-deoxy-2-fluoro-β-D-arabinosyl}oxy)phosphonomethyl]phosphonic Acid]	245 (≈ 119 µg/mL)		0.2	> 2	> 2	97		93		–11.2 kcal/mol	0.022	5.1	3.3					
O=P(O)(O)CP(=O)(O)OC[C@H]1O[C@@H](n2ccc3c(-c4cccc5ccccc45)ncnc32)[C@@H](F)[C@@H]1O [34A.6]	167 (≈ 89.7 µg/mL)		0.065	> 2	> 2	94		97		–11.8 kcal/mol	0.017	1.3	19					

The next lines start with results.

solubility at 2 h [1] [µM]	fraction unbound at 4 h, 100 µM [3, 11]	fraction unbound at 4 h, 100 µM [4]	half-life at 10 µM (in vitro [5]) [h]	half-life at 10 µM (in vitro [6]) [h]	Mics (m) comp remaining 60 min [7] [%]	microsomal CLint at 10 µM [7] [µL/min/mg]	Mics (hu) comp remaining 60 min [8] [%]	microsomal CLint at 10 µM [8] [µL/min/mg]	dG_exp, experimental binding free energy [9]	fraction unbound at 4 h, 100 µM [3, 12]	half-life [10] [h]	clearance [10] [mL/min/kg]	SMILES	IC50 (HepG2) [µM]	IC50 (CCRF-CEM) [µM]	IC50 [2] [µM]	IC50 (HL-60) [µM]	IC50 (HeLa S3) [µM]
82 (≈ 44.1 µg/mL)		0.022	> 2	> 2	90		94		–11.8 kcal/mol	0.002	3.13	7.2	O=P(O)(O)CP(=O)(O)OC[C@H]1O[C@@H](n2ccc3c(-c4ccc5ccccc5c4)ncnc32)[C@@H](F)[C@@H]1O [34A.7]					
75 (≈ 40.6 µg/mL)		0.055	> 2	> 2	115		96		–12.4 kcal/mol	0.007			O=P(O)(O)CP(=O)(O)OC[C@H]1O[C@@H](n2ccc3c(-c4cccc5c4CCCC5)ncnc32)[C@@H](F)[C@@H]1O [34A.12]					
73 (≈ 39.5 µg/mL)		0.253	> 2	> 2	89		90		–11.8 kcal/mol	0.05			O=P(O)(O)CP(=O)(O)OC[C@H]1O[C@@H](n2ccc3c(-c4ccc5c(c4)CCCC5)ncnc32)[C@@H](F)[C@@H]1O [34A.17]					
100 (≈ 55.5 µg/mL)		0.017	> 2	> 2	116		98		–12.3 kcal/mol	0.001			O=P(O)(O)CP(=O)(O)OC[C@H]1O[C@@H](n2ccc3c(-c4ccc(F)c5ccccc45)ncnc32)[C@@H](F)[C@@H]1O [34A.23]					
100 (≈ 53.8 µg/mL)		0.058	> 2	> 2	101		102		–12.5 kcal/mol	0.014	1.32	18	O=P(O)(O)CP(=O)(O)OC[C@H]1O[C@@H](n2ccc3c(-c4ccnc5ccccc45)ncnc32)[C@@H](F)[C@@H]1O [34A.28]					
